According to the supplement of paper PMC10307832:

Key:
Assay in all cases: relative viability (nuclei count vs DMSO), 5 days (fraction); higher = more cells survive
VX-11e + Palbociclib = compound: CC1=CN=C(N=C1C2=CNC(=C2)C(=O)N[C@H](CO)C3=CC(=CC=C3)Cl)NC4=C(C=C(C=C4)F)Cl [VX-11e] + CC(=O)c1c(C)c2cnc(Nc3ccc(N4CCNCC4)cn3)nc2n(C2CCCC2)c1=O [Palbociclib] (partner 0.5 µM)
Summary of the method: (§1)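 Relative viability was taken as the ratio of nuclei in treated wells to nuclei in vehicle wells. Lung cancer cell lines in 1536-well plates received compounds by pin tool one day after seeding, either one drug alone or a fixed anchor-drug dose plus five library-drug doses (not always all listed) in √10 steps. Nuclei were counted on 4× images after 5 days of treatment, and values are medians of duplicate plates.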

VX-11e + Bortezomib = compound: CC1=CN=C(N=C1C2=CNC(=C2)C(=O)N[C@H](CO)C3=CC(=CC=C3)Cl)NC4=C(C=C(C=C4)F)Cl [VX-11e] + CC(C)C[C@H](NC(=O)[C@H](Cc1ccccc1)NC(=O)c1cnccn1)B(O)O [Bortezomib] (partner 0.002 µM)
Summary of the method: as §1

VX-11e + Foretinib = compound: CC1=CN=C(N=C1C2=CNC(=C2)C(=O)N[C@H](CO)C3=CC(=CC=C3)Cl)NC4=C(C=C(C=C4)F)Cl [VX-11e] + COc1cc2c(Oc3ccc(NC(=O)C4(C(=O)Nc5ccc(F)cc5)CC4)cc3F)ccnc2cc1OCCCN1CCOCC1 [Foretinib] (partner 0.25 µM)
Summary of the method: as §1

VX-11e + Pictilisib = compound: CC1=CN=C(N=C1C2=CNC(=C2)C(=O)N[C@H](CO)C3=CC(=CC=C3)Cl)NC4=C(C=C(C=C4)F)Cl [VX-11e] + CS(=O)(=O)N1CCN(Cc2cc3nc(-c4cccc5[nH]ncc45)nc(N4CCOCC4)c3s2)CC1 [Pictilisib] (partner 1 µM)
Summary of the method: as §1

EPLC-272H
relative viability (VX-11e + Palbociclib; first compound 0.04 µM): 0.339 | relative viability (VX-11e + Palbociclib; first compound 0.1265 µM): 0.293 | relative viability (VX-11e + Palbociclib; first compound 1.265 µM): 0.295 | relative viability (VX-11e + Palbociclib; first compound 4 µM): 0.235 | relative viability (VX-11e + Bortezomib; first compound 0.04 µM): 0.94 | relative viability (VX-11e + Bortezomib; first compound 0.1265 µM): 0.799 | relative viability (VX-11e + Bortezomib; first compound 0.4 µM): 0.841 | relative viability (VX-11e + Bortezomib; first compound 1.265 µM): 0.839 | relative viability (VX-11e + Bortezomib; first compound 4 µM): 0.665 | relative viability (VX-11e + Foretinib; first compound 0.04 µM): 0.622 | relative viability (VX-11e + Foretinib; first compound 0.1265 µM): 0.559 | relative viability (VX-11e + Foretinib; first compound 1.265 µM): 0.361 | relative viability (VX-11e + Foretinib; first compound 4 µM): 0.261 | relative viability (VX-11e + Pictilisib; first compound 0.04 µM): 0.301 | relative viability (VX-11e + Pictilisib; first compound 0.1265 µM): 0.299 | relative viability (VX-11e + Pictilisib; first compound 0.4 µM): 0.266 | relative viability (VX-11e + Pictilisib; first compound 1.265 µM): 0.213 | relative viability (VX-11e + Pictilisib; first compound 4 µM): 0.233

H3255
relative viability (VX-11e + Palbociclib; first compound 0.04 µM): 0.312 | relative viability (VX-11e + Palbociclib; first compound 0.1265 µM): 0.305 | relative viability (VX-11e + Palbociclib; first compound 0.4 µM): 0.316 | relative viability (VX-11e + Palbociclib; first compound 1.265 µM): 0.316 | relative viability (VX-11e + Palbociclib; first compound 4 µM): 0.327 | relative viability (VX-11e + Bortezomib; first compound 0.04 µM): 0.709 | relative viability (VX-11e + Bortezomib; first compound 0.1265 µM): 0.857 | relative viability (VX-11e + Bortezomib; first compound 0.4 µM): 0.657 | relative viability (VX-11e + Bortezomib; first compound 1.265 µM): 0.612 | relative viability (VX-11e + Bortezomib; first compound 4 µM): 0.64 | relative viability (VX-11e + Foretinib; first compound 0.04 µM): 0.734 | relative viability (VX-11e + Foretinib; first compound 0.1265 µM): 0.963 | relative viability (VX-11e + Foretinib; first compound 0.4 µM): 0.87 | relative viability (VX-11e + Foretinib; first compound 1.265 µM): 0.918 | relative viability (VX-11e + Foretinib; first compound 4 µM): 0.948 | relative viability (VX-11e + Pictilisib; first compound 0.04 µM): 0.476 | relative viability (VX-11e + Pictilisib; first compound 0.1265 µM): 0.428 | relative viability (VX-11e + Pictilisib; first compound 0.4 µM): 0.482 | relative viability (VX-11e + Pictilisib; first compound 1.265 µM): 0.596 | relative viability (VX-11e + Pictilisib; first compound 4 µM): 0.316

HARA
relative viability (VX-11e + Palbociclib; first compound 0.04 µM): 0.337 | relative viability (VX-11e + Palbociclib; first compound 0.1265 µM): 0.237 | relative viability (VX-11e + Palbociclib; first compound 0.4 µM): 0.196 | relative viability (VX-11e + Palbociclib; first compound 1.265 µM): 0.158 | relative viability (VX-11e + Palbociclib; first compound 4 µM): 0.178 | relative viability (VX-11e + Bortezomib; first compound 0.04 µM): 0.992 | relative viability (VX-11e + Bortezomib; first compound 0.1265 µM): 1.08 | relative viability (VX-11e + Bortezomib; first compound 0.4 µM): 1.13 | relative viability (VX-11e + Bortezomib; first compound 1.265 µM): 0.507 | relative viability (VX-11e + Bortezomib; first compound 4 µM): 0.803 | relative viability (VX-11e + Foretinib; first compound 0.04 µM): 0.857 | relative viability (VX-11e + Foretinib; first compound 0.1265 µM): 0.856 | relative viability (VX-11e + Foretinib; first compound 0.4 µM): 0.841 | relative viability (VX-11e + Foretinib; first compound 1.265 µM): 0.734 | relative viability (VX-11e + Foretinib; first compound 4 µM): 0.343 | relative viability (VX-11e + Pictilisib; first compound 0.04 µM): 0.0961 | relative viability (VX-11e + Pictilisib; first compound 0.1265 µM): 0.425 | relative viability (VX-11e + Pictilisib; first compound 0.4 µM): 0.322 | relative viability (VX-11e + Pictilisib; first compound 1.265 µM): 0.341 | relative viability (VX-11e + Pictilisib; first compound 4 µM): 0.188

HCC-15
relative viability (VX-11e + Palbociclib; first compound 0.04 µM): 0.838 | relative viability (VX-11e + Palbociclib; first compound 0.1265 µM): 0.627 | relative viability (VX-11e + Palbociclib; first compound 1.265 µM): 0.445 | relative viability (VX-11e + Palbociclib; first compound 4 µM): 0.249 | relative viability (VX-11e + Bortezomib; first compound 0.04 µM): 1.1 | relative viability (VX-11e + Bortezomib; first compound 0.1265 µM): 1.07 | relative viability (VX-11e + Bortezomib; first compound 0.4 µM): 0.754 | relative viability (VX-11e + Bortezomib; first compound 1.265 µM): 0.794 | relative viability (VX-11e + Bortezomib; first compound 4 µM): 0.428 | relative viability (VX-11e + Foretinib; first compound 0.04 µM): 1.07 | relative viability (VX-11e + Foretinib; first compound 0.1265 µM): 0.897 | relative viability (VX-11e + Foretinib; first compound 1.265 µM): 0.558 | relative viability (VX-11e + Foretinib; first compound 4 µM): 0.357 | relative viability (VX-11e + Pictilisib; first compound 0.04 µM): 0.619 | relative viability (VX-11e + Pictilisib; first compound 0.1265 µM): 0.682 | relative viability (VX-11e + Pictilisib; first compound 0.4 µM): 0.32 | relative viability (VX-11e + Pictilisib; first compound 1.265 µM): 0.334 | relative viability (VX-11e + Pictilisib; first compound 4 µM): 0.168

HCC-44
relative viability (VX-11e + Palbociclib; first compound 0.04 µM): 0.984 | relative viability (VX-11e + Palbociclib; first compound 0.1265 µM): 0.885 | relative viability (VX-11e + Palbociclib; first compound 0.4 µM): 0.96 | relative viability (VX-11e + Palbociclib; first compound 1.265 µM): 1.07 | relative viability (VX-11e + Palbociclib; first compound 4 µM): 1.29 | relative viability (VX-11e + Bortezomib; first compound 0.04 µM): 0.913 | relative viability (VX-11e + Bortezomib; first compound 0.1265 µM): 0.912 | relative viability (VX-11e + Bortezomib; first compound 0.4 µM): 0.857 | relative viability (VX-11e + Bortezomib; first compound 1.265 µM): 0.646 | relative viability (VX-11e + Bortezomib; first compound 4 µM): 0.453 | relative viability (VX-11e + Pictilisib; first compound 0.04 µM): 0.539 | relative viability (VX-11e + Pictilisib; first compound 0.1265 µM): 0.552 | relative viability (VX-11e + Pictilisib; first compound 0.4 µM): 0.628 | relative viability (VX-11e + Pictilisib; first compound 1.265 µM): 0.359 | relative viability (VX-11e + Pictilisib; first compound 4 µM): 0.163
